The target of test [1] is T1, P2Y12 receptor on platelets (Homo sapiens, UniProt Q9H244).
T1 construct: endogenous in cells; host or cells: human platelets, apyrase-washed: outdated from hospital blood banks, or fresh
Description: platelet ADP receptor binding assay (ARB): inhibition of [3H]2-MeS-ADP binding to platelets. The following applies: apyrase-washed human platelets. How it is done:
1. The Ability of Candidate Molecules to Inhibit the Binding of [3H]2-MeS-ADP to the P2Y12 Receptor on Platelets was Determined Using a Radioligand Binding Assay.
Utilizing this assay the potency of inhibition of such compounds with respect to [^3H]2-MeS-ADP binding to whole platelets is determined. Under the conditions described in II (3) below, the binding of [^3H]2-MeS-ADP is solely due to the interaction of this ligand with the P2Y12 receptor, in that all the specific binding measured in this assay is compatible with a P2Y12 antagonist (i.e., the specific binding is reduced to background levels by competition with an excess of P2Y12 antagonist, with no competition of binding when a P2Y1 antagonist is pre-incubated with the platelet preparation). […]
A platelet ADP receptor binding assay (ARB) using the tritiated potent agonist ligand [^3H]2-MeS-ADP (Jantzen, H. M. et al. (1999) Thromb. Hemost. 81:111-117) has been adapted to the 96-well microtiter format. […] Total binding is determined in the absence of test compounds. […] The platelet-bound radioactivity on the filtermats is determined in a scintillation counter (Microbeta 1450, Wallac Inc., Gaithersburg, Md.). Specific binding is determined by subtraction of non-specific binding from total binding, and specific binding in the presence of test compounds is expressed as % of specific binding in the absence of test compound dilutions. […]

Test [2] deals with ADP-induced human platelet aggregation (human platelet-rich plasma). Description: inhibition of ADP-mediated platelet aggregation in platelet-rich plasma (PRP assay). The class given is cell-based. How it is done:
Platelet-rich plasma (PRP) is prepared by centrifugation of whole blood at 160×g for 20 minutes at room temperature. […] PPP is prepared by centrifugation of the remaining blood sample (after removal of PRP) for 20 minutes at 800×g. This preparation of PRP can subsequently be used for aggregation assays in either a 96-well plate or standard cuvette aggregometry.
J. Clin. Pathol. […] All steps are performed at room temperature. […] The plates are then agitated for 5 min on a microtiter plate shaker and the 5 minute reading is obtained in the plate reader. […] IC50s were derived by non-linear regression analysis.

Among the data in patent publication US8058284B2, “[4-(6-halo-7-substituted-2,4-dioxo-1,4-dihydro-2H-quinazolin-3-yl)-phenyl]-5-chloro-thiophen-2-yl-sulfonylureas and forms and methods related thereto” (Portola Pharmaceuticals, Inc., priority 2005, dated 2011) are IC50 values, retold here.

For orientation: pIC50 means the IC50 on a negative log10 scale, so that one unit is a factor of ten. A low value points to a large IC50.

Molecules are shown by their SMILES. pIC50: −log10 of the molar value. Where two headings read alike, the source gives them in different places.

T1 sequence (Q9H244 whole entry): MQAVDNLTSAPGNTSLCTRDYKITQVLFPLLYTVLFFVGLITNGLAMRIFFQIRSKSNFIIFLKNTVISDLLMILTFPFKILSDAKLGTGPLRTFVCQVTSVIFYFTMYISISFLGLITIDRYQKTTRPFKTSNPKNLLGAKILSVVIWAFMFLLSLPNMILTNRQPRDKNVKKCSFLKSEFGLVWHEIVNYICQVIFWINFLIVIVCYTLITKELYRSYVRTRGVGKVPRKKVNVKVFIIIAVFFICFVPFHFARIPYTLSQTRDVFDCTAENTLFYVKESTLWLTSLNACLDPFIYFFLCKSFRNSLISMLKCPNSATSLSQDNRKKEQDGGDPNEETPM

Consider `CNc1cc2[nH]c(=O)n(-c3ccc(NC(=O)NS(=O)(=O)c4ccc(Cl)s4)cc3)c(=O)c2cc1F` [Example 2], for which the figures for the pIC50 in test [1] and in test [2] (Platelet) were greater than 7.30 and greater than 5.00, respectively.
For the compound `CNc1cc2[nH]c(=O)n(-c3ccc(NC(=O)NS(=O)(=O)c4ccc(Cl)s4)cc3)c(=O)c2cc1Cl` [Example 3, [4-(6-chloro-7-methylamino-2,4-dioxo-1,4-dihydro-2H-quinazolin-3-yl)-phenyl]-5-chloro-thiophen-2-yl-sulfonylurea], the pIC50 in test [1] was 6.30 to 7.30; in test [2], 4.52 to 5.00.
